In ChEMBL document CHEMBL4823243, “Synergistic induction of apoptosis in resistant head and neck carcinoma and leukemia by alkoxyamide-based histone deacetylase inhibitors” (Eur J Med Chem, 2021):
Active and inactive are the calls of the source. No cut-off for these calls is given here.

Assays:
Histone deacetylase = assay: Inhibition of HDAC in human A2780 cells using Boc-Lys (acetyl)-AMC as substrate preincubated for 18 hrs followed by susbtrate addition and measured after 3 hrs by fluorescence microplate reader assay; assay type: cell-based
Cal27CisR [1] = assay: Induction of DNA damage human Cal27CisR cells assessed as upregulation of gamma H2AX in presence cisplatin measured by Western blot analysis; assay type: functional
[2] = target: T1, Histone deacetylase (Homo sapiens) (UniProt Q13547+O15379+Q9UBN7+Q92769+Q9UQL6+Q8WUI4+Q9BY41+Q96DB2+P56524+Q9UKV0+Q969S8); assay: Inhibition of HDAC in human Cal27CisR cells assessed as combination index at 0.5 uM measured in presence of 10 uM cDDP by MTT-based Chou-Talalay method; assay type: cell-based
Cal27CisR [3] = assay: Induction of DNA damage in human Cal27CisR cells assessed as increase in gamma H2AX phosphorylation pretreated for 24 hrs followed by cisplatin treatment and further incubated for 18 hrs measured by Western blot analysis; assay type: functional, cell-based; settings: time 42.0 hrs
Histone deacetylase 8 = target: T2, Histone deacetylase 8 (Homo sapiens, UniProt Q9BY41); assay: Inhibition of recombinant human C-terminal His-fusion tagged/N-terminal Strep2 tagged HDAC8 (1 to 377 residues) expressed in insect cells using Boc-Lys(TFA)-AMC as substrate preincubated for 5 mins followed by substrate addition measured after 90 mins by fluorimetry
T2 sequence (Q9BY41 whole entry): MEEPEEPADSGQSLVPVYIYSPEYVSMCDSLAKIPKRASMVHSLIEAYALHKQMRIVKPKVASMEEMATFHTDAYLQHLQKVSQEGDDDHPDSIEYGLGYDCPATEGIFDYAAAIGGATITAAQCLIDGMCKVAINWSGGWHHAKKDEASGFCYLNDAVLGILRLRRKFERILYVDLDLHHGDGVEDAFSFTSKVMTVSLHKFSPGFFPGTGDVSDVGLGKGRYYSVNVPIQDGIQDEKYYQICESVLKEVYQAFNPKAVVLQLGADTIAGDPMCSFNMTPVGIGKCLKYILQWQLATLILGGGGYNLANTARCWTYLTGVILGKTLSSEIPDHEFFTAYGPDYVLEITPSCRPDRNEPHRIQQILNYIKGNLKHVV

Histone deacetylase 2 = Histone deacetylase 2 (Homo sapiens, UniProt Q92769); assay: Inhibition of recombinant human full length C-terminal GST-fusion tagged HDAC2 expressed in baculovirus infected insect cells using Boc-Lys(Ac)-AMC as substrate preincubated for 5 mins followed by substrate addition measured after 90 mins by fluorimetry; assay type: cell-based
Histone deacetylase 4 = Histone deacetylase 4 (Homo sapiens, UniProt P56524); assay: Inhibition of recombinant human N-terminal GST-fusion tagged/C-terminal GST-tagged HDAC4 (627 to 1084 residues) expressed in baculovirus infected insect cells using Boc-Lys(TFA)-AMC as substrate preincubated for 5 mins followed by substrate addition measured after 90 mins by fluorimetry
[4] = target: T1, Histone deacetylase (Homo sapiens); assay: Inhibition of HDAC in human Cal27CisR cells assessed as combination index at 0.5 uM measured in presence of 50 uM cDDP by MTT-based Chou-Talalay method; assay type: cell-based
CAL-27 [5] = assay: Induction of DNA damage in human CAL-27 cells assessed as increase in gamma H2AX phosphorylation pretreated for 24 hrs followed by cisplatin treatment and further incubated for 18 hrs measured by Western blot analysis; assay type: functional, cell-based; settings: time 42.0 hrs
[6] = target: T3, Protein deacetylase HDAC6 (Homo sapiens, UniProt Q9UBN7); assay: Inhibition of recombinant human N-terminal GST-tagged HDAC6 (1 to 1215 residues) expressed in baculovirus infected insect cells using Boc-Lys(Ac)-AMC as substrate preincubated for 5 mins followed by substrate addition measured after 90 mins by fluorimetry
T3 sequence (Q9UBN7 whole entry): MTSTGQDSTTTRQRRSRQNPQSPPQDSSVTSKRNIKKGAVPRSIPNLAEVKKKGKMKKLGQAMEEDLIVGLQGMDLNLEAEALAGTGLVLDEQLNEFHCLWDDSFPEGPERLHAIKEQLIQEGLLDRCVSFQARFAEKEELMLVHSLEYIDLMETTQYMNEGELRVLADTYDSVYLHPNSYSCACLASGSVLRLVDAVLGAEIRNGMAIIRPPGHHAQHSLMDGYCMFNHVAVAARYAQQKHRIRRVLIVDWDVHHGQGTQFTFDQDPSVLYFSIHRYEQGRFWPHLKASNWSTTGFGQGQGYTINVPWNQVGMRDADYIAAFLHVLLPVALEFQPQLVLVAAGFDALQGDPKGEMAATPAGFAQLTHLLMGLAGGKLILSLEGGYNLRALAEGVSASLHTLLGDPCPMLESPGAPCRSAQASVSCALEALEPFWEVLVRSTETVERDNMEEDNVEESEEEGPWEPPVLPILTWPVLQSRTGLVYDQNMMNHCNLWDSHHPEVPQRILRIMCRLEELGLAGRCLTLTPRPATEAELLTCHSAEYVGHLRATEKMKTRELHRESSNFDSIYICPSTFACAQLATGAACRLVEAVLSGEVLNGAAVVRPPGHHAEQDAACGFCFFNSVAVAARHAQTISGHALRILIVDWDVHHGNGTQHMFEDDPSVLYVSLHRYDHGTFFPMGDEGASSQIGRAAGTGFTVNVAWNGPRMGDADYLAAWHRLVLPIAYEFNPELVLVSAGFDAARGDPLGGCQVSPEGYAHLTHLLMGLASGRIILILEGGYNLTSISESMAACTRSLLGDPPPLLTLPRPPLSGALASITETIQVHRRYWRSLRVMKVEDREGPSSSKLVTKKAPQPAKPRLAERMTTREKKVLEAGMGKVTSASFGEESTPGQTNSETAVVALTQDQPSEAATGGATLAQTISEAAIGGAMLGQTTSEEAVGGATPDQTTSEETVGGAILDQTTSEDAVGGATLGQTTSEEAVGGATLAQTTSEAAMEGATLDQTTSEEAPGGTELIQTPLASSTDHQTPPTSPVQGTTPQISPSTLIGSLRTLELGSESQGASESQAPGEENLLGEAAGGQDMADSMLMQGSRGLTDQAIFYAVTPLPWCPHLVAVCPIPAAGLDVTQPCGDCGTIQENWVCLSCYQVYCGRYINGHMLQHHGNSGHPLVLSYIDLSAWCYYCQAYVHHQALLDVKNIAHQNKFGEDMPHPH

A2780 = assay: Antiproliferative activity against human A2780 cells assessed as reduction in cell viability after 72 hrs by MTT assay; assay type: functional, cell-based; settings: A2780, 72 h
CAL-27 [7] = assay: Induction of DNA damage in human CAL-27 cells assessed as upregulation of gamma H2AX in presence cisplatin measured by Western blot analysis; assay type: functional, cell-based
[8] = target: T4, Protein deacetylase HDAC6 (Homo sapiens) (UniProt Q9UBN7); assay: Inhibition of HDAC6 in human CAL-27 cells assessed as accumulation of acetylated alpha-tubulin at 5 uM for 24 hrs by Western blot analysis; assay type: cell-based
T4 sequence (whole entry): T3 sequence (Q9UBN7 whole entry)

CAL-27 [9] = assay: Antiproliferative activity against human CAL-27 cells assessed as reduction in cell viability after 72 hrs by MTT assay; assay type: functional, cell-based; settings: CAL-27, 72 h

Sequence of Histone deacetylase 4 (P56524 whole entry, the tested form may be a part): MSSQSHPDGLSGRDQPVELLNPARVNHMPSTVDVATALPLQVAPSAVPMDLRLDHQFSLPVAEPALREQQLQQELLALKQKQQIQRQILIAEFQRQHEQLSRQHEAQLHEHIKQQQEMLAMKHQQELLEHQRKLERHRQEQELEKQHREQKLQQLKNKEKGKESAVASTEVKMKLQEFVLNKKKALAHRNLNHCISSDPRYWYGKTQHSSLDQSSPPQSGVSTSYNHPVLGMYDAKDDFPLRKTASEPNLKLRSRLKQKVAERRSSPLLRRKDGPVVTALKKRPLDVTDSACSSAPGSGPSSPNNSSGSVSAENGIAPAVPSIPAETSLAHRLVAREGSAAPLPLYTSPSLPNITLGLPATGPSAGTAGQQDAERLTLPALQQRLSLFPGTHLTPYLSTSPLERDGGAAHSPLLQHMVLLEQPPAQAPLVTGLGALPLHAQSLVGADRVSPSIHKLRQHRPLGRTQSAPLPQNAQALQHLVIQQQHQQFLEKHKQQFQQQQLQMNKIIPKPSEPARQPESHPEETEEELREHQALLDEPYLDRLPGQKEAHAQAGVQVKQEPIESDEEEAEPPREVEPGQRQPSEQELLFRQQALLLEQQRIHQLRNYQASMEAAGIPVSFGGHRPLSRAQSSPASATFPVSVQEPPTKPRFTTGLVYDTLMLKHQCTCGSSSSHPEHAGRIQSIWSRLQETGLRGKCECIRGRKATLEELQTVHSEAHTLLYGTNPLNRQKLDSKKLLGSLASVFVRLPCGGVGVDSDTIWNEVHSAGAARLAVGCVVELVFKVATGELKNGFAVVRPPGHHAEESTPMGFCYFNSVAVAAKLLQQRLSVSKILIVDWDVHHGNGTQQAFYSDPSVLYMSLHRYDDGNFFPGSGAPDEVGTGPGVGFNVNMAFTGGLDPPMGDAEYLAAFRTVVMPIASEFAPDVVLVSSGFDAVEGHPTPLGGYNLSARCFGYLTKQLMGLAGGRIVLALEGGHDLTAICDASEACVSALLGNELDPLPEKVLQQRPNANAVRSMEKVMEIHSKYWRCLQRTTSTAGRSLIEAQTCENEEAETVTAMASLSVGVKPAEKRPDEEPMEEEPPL
Sequence of Histone deacetylase 2 (Q92769 whole entry, the tested form may be a part): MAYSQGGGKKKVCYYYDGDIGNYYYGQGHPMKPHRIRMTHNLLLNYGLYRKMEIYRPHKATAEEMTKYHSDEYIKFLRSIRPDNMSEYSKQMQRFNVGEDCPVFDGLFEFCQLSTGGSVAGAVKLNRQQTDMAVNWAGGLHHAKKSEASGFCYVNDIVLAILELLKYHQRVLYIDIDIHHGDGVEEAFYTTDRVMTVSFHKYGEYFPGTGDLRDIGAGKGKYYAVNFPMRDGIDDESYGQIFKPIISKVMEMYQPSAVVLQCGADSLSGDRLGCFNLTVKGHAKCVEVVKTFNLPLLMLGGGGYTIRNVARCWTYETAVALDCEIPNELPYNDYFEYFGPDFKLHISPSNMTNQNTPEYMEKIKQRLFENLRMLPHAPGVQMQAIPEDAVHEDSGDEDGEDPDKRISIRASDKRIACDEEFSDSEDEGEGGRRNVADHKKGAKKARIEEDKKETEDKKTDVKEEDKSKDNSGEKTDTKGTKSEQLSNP

| SMILES | IC50 (Histone deacetylase) [µM] | Activity (Cal27CisR [1]) | CI [2] | Activity (Cal27CisR [3]) | IC50 (Histone deacetylase 8) [µM] | IC50 (Histone deacetylase 2) [nM] | IC50 (Histone deacetylase 4) [µM] | CI [4] | Activity (CAL-27 [5]) | IC50 [6] [nM] | IC50 (A2780) [µM] | Activity (CAL-27 [7]) | inhibition [8] | IC50 (CAL-27 [9]) [nM] |
| --- | --- | --- | --- | --- | --- | --- | --- | --- | --- | --- | --- | --- | --- | --- |
| O=C(CCCCCONC(=O)c1ccc2ccccc2n1)NO | 0.48 | Active | 0.13 | Active | 9.78 | 92 | > 100 | 0.5 | Active | 25 | 0.8 | Active | Active | 250 |
| O=C(CCCCCONC(=O)c1nccc2ccccc12)NO | 0.25 | Active | 1.11 | Active | 12.4 | 759 | > 100 | 0.97 | Active | 173 | 19.9 | Active | Active | 2120 |
| O=C(CCCCCONC(=O)c1cc2ccccc2[nH]1)NO | 0.67 | Active | 0.27 | Active | 10.3 | 57 | 55.7 | 0.47 | Active | 13 | 4.05 | Active | Active | 300 |
